Measured values published in patent US20240116910A1, “Heterocycles as WIP1 Inhibitors” (PMV Pharmaceuticals, Inc., priority 2022, published 2024).

molecular target: recombinant His-tag Wip1(2-420) protein (amino acids #2-420) (Homo sapiens (Human), UniProt O15297); assay: Wip1(2-420) phosphatase enzyme FDP assay; assay type: biochemical; details: fluorescein diphosphate (FDP) substrate, RT 2 hours, fluorescence Ex485/Em535; read-out: WIP1 (Truncated 2-420) FDP Assay: IC50
Description: The Human Wip1 (2-420, aa 2-420) or Wip1 full length (aa 1-605) DNA sequence was codon optimized and synthesized by Genscript for insect cell expression. The open reading frame of Wip1(2-420) with a N-terminal-His6 affinity tag followed by a TEV cleavage site was subcloned sites into the pFastBac1 expression vector. The recombinant bacmid DNA was transfected in Sf9 insect cells for baculovirus production. After 72 hours infection, the Sf9 cells were harvested by centrifugation and resuspended in lysis buffer containing 50 mM Tris/HCl, pH 8.0, 500 mM NaCl, 20% glycerol, Benzonase 0.5% CHAPS and Roche cOmplete™ EDTA free protease inhibitors. Cells were disrupted with microfluidizer and the debris was removed by centrifugation at 185,000 g for 1 hour. The supernatant was subjected to HisTrap FF for affinity purification. Proteins were eluted with a linear gradient of 0-500 mM imidazole in HisTrap buffer containing 50 mM Tris/HCl, pH 8.0, 500 mM NaCl and 20% glycerol, 0.05% CHAPS. The eluted protein was dialyzed against dialysis buffer (20 mM MES, 100 mM NaCl, 20% glycerol, 0.5 mM TCEP, 0.05% CHAPS) followed purification via HiTrap SP HP column. The protein was eluted with a gradient of 100 mM-2 M NaCl in dialysis buffer. His6-[…] was finally concentrated and loaded onto a size-exclusion column (NiLoad 16/600 Superdex 200 pg, GE Healthcare) pre-equilibrated with 50 mM MOPS (pH 7.5), 200 mM NaCl, 20% glycerol, 1 mM TCEP, 0.05% CHAPS and 0.1 mM EGTA. The peak fractions containing purified Nis6-Wip1(2-420) were pooled and concentrated to 1.0 mg/mL and flash frozen at −80° C.
Wip1 Length and Wip1(2-420) Phosphatase Enzyme FDP Assays.
Test compounds (252 mM stock in DMSO) were diluted 3 folds in series in DMSO and 1.2 μl per well were added into 384-well polypropylene black plates (Nunc). Twelve μl per well of Assay Buffer (100 mM NaCl, 50 mM MOPS, pH 7.5, 0.8 mM CHAPS, 0.1 mM EGTA, 30 mM MgCl2, 0.3 mM TCEP, 0.2 mg/mL BSA) was added followed by […] per well of 50.4 nM recombinant His-tag Wip1 full length protein (amino acids #1-605) or recombinant His-tag Wip1(2-420) protein (amino acids #2-420) in Assay Buffer and the plate was incubated at RT (22° C.) for 5 min. Ten mM of fluorescein diphosphate (FDP) in DMSO was diluted to […] in Assay Buffer and […] per well was added to the plate and incubated at RT (22° C.) for 2 hours. […] per well of 64.1 mM EDTA in water were added to stop the enzyme reaction. The plate was centrifuged at 1,200 rpm (Eppendorf 5810R Plate centrifuge) for 1 minute and fluorescence intensity (Ex485/Em535) was measured on Perkin Elmer Victor Reader. EC50 values were calculated using either Prism (GraphPad) or ActivityBase software (IDBS), The IC50 results are provided in Table M.

Chain of recombinant His-tag Wip1(2-420) protein (amino acids #2-420) (O15297 2-420): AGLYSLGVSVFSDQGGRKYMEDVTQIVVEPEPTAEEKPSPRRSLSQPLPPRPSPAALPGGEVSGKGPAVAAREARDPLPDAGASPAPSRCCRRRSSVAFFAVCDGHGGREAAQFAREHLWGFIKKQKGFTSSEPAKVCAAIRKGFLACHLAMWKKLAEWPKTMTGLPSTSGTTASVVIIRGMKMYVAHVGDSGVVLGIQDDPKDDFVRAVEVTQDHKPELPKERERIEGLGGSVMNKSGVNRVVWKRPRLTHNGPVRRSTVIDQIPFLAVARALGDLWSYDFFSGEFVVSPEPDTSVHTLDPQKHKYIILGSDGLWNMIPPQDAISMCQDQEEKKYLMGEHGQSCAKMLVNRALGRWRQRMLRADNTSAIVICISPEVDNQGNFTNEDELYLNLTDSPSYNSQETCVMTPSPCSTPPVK

Compound | IC50 [nM]
Cc1ncc(Cl)cc1N[C@@H](C)c1ccc(C(=O)N[C@@H](CC2CCC3CC32)C(=O)NC23CC(C2)C3)s1 (stereo partly drawn) [Compound 110, (2S)-N-{bicyclo[1.1.1]pentan-1-yl}-3-{bicyclo[3.1.0]hexan-2-yl}-2-({5-[(1S)-1-[(5-chloro-2-methylpyridin-3-yl)amino]ethyl]thiophen-2-yl}formamido)propanamide] | 6
Cc1ncc(Cl)cc1N[C@@H](C)c1ccc(C(=O)N[C@@H](CC2CCC3CC32)C(=O)NC23CC(C#N)(C2)C3)s1 (stereo partly drawn) [Compound 111, (2S)-3-{bicyclo[3.1.0]hexan-2-yl}-2-({5-[(1S)-1-[(5-chloro-2-methylpyridin-3-yl)amino]ethyl]thiophen-2-yl}formamido)-N-{3-cyanobicyclo[1.1.1]pentan-1-yl}propanamide] | 12
Cc1ncc(Cl)cc1N[C@@H](C)c1ccc(C(=O)N[C@@H](CC2CCCCC2)C(=O)Nc2ccc(F)cc2)s1 [Compound 112, (2S)-2-({5-[(1S)-1-[(5-chloro-2-methylpyridin-3-yl)amino]ethyl]thiophen-2-yl}formamido)-3-cyclohexyl-N-(4-fluorophenyl)propanamide] | 4
Cc1ncc(Cl)cc1N[C@@H](C)c1ccc(C(=O)N[C@@H](CC2CCCC2)C(=O)NC23COC(C2)C3)s1 [Compound 113, (2S)-2-({5-[(1S)-1-[(5-chloro-2-methylpyridin-3-yl)amino]ethyl]thiophen-2-yl}formamido)-3-cyclopentyl-N-{2-oxabicyclo[2.1.1]hexan-4-yl}propanamide] | 11
Cc1ncc(Cl)cc1N[C@@H](C)c1ccc(C(=O)N[C@@H](CC2CCCC2)C(=O)N[C@H]2C[C@H](C)C2)s1 [Compound 114, (2S)-2-({5-[(1S)-1-[(5-chloro-2-methylpyridin-3-yl)amino]ethyl]thiophen-2-yl}formamido)-3-cyclopentyl-N-[(1s,3r)-3-methylcyclobutyl]propanamide] | 6
Cc1ncc(Cl)cc1N[C@@H](C)c1ccc(C(=O)N[C@@H](CC2CCCC2)C(=O)NC2CCC(C#N)C2)s1 (stereo partly drawn) [Compound 115, (2S)-2-({5-[(1S)-1-[(5-chloro-2-methylpyridin-3-yl)amino]ethyl]thiophen-2-yl}formamido)-N-(3-cyanocyclopentyl)-3-cyclopentylpropanamide] | 11
Cc1ncc(Cl)cc1N[C@@H](C)c1ccc(C(=O)N[C@@H](CC2CCC3CC32)C(=O)N[C@H]2C[C@H](F)C2)s1 (stereo partly drawn) [Compound 116, (2S)-3-{bicyclo[3.1.0]hexan-2-yl}-2-({5-[(1S)-1-[(5-chloro-2-methylpyridin-3-yl)amino]ethyl]thiophen-2-yl}formamido)-N-[(1r,3r)-3-fluorocyclobutyl]propanamide] | 10
C[C@H](Nc1cccc(Cl)c1)c1ncc(C(=O)N[C@@H](CC2CCCC2)C(=O)NC2CC2)s1 [Compound 124, (2S)-2-({2-[(1S)-1-[(3-chlorophenyl)amino]ethyl]-1,3-thiazol-5-yl}formamido)-3-cyclopentyl-N-cyclopropylpropanamide] | 905
Cc1ncc(Cl)cc1N[C@H](C)c1ncc(C(=O)N[C@@H](CC2CCCC2)C(=O)NC23CC(C2)C3)s1 [Compound 126, (2S)-N-{bicyclo[1.1.1]pentan-1-yl}-2-({2-[(1R)-1-[(5-chloro-2-methylpyridin-3-yl)amino]ethyl]-1,3-thiazol-5-yl}formamido)-3-cyclopentylpropanamide] | 1020
Cc1ncc(Cl)cc1N[C@H](C)c1ncc(C(=O)N[C@@H](CC2CCCC2)C(=O)NC2CC2)s1 [Compound 127, (2S)-2-({2-[(1R)-1-[(5-chloro-2-methylpyridin-3-yl)amino]ethyl]-1,3-thiazol-5-yl}formamido)-3-cyclopentyl-N-cyclopropylpropanamide] | 1550
Cc1cc(NC(=O)[C@H](CC2CCCC2)NC(=O)c2cnc([C@H](C)Nc3cccc(Cl)c3)s2)cc(C)n1 [Compound 128, (2S)-2-({2-[(1S)-1-[(3-chlorophenyl)amino]ethyl]-1,3-thiazol-5-yl}formamido)-3-cyclopentyl-N-(2,6-dimethylpyridin-4-yl)propanamide] | 3910
